Experimental data taken from patent EP0109362A1, “Hetereocyclic compounds, process for their preparation, pharmaceutical compositions containing them and their use” (CIBA-GEIGY AG, priority 1982, dated 1984).
≈ marks a conversion by molar mass, not a printed value. Read-outs that look alike come from different tables or passages of the source.

Columns and labels:
[1] = test system: Clostridium perfringens 194; experiment: microbe, parasite or virus in culture; type: cell-based
[2] = test system: Enterobacter cloacae P 99; experiment: in vitro antibacterial test (MIC); type: cell-based; conditions: P99
[3] = test system: Pseudomonas aeruginosa K 799/61; experiment: in vitro antibacterial test (MIC); type: cell-based; conditions: K799/61
[4] = test system: Neisseria gonorrhoeae 1317-4; experiment: in vitro antibacterial test (MIC); type: cell-based; conditions: 13174
Proteus mirabilis 774 = experiment: in vitro antibacterial test (MIC); type: cell-based
[5] = test system: Staphylococcus aureus lOB; experiment: systemic infection of the mouse (ED50); type: in vivo, Maus; conditions: sc
Text: (§1) Die Verbindungen der Formel I weisen wertvolle pharmakologische Eigenschaften auf, oder können als Zwischenprodukte zur Herstellung von solchen Verbindungen mit wertvollen pharmakologischen Eigenschaften verwendet werden. Verbindungen der Formel I, worin R1 Wasserstoff oder Methyl ist, Rz Hydroxybedeutet, R3 Carboxyl oder eine unter physiologischen Bedingungen spaltbare veresterte Carboxylgruppe bedeutet und R4 die unter Formel I angegebene Bedeutung hat, und pharmakologisch verwendbare Salze von solchen Verbindungen mit salzbildenden Gruppen haben antibakterielle Wirkungen. Beispielsweise sind sie in vitro gegen grampositive und gramnegative Kokken, z.B. Staphylococcus aureus, Streptococcus pyogenes, Streptococcus pneumoniae, Streptococcus faecalis, Neisseria meningitidis und Neisseria gonorrhoeae, und gegen gramnegative Stäbchenbakterien, wie Enterobacteriaceae, Haemophilus influenzae und Pseudomonas aeruginosa, und Anaerobier, z.B. Bacteroides sp., in minimalen Konzentrationen von ca. 0,01 bis ca. 64 µg/ml wirksam. In vivo, bei der systemischen Infektion der Maus, z.B. durch Staphylococcus aureus oder Streptococcus pyogenes, ergeben sich bei subkutaner oder oraler Applikation ED50 -Werte von ca. 0,3 bis ca. 30 mg/kg. […]

Escherichia coli 16 = experiment: in vitro antibacterial test (MIC); type: cell-based
Proteus mirabilis 1219 = experiment: in vitro antibacterial test (MIC); type: cell-based
[6] = test system: Bacteroides fragilis L 01; experiment: in vitro antibacterial test (MIC); type: cell-based; conditions: L01
Proteus morganii 2359 = experiment: in vitro antibacterial test (MIC); type: cell-based; conditions: Morganella morganii
Serratia marcescens 344 = experiment: in vitro antibacterial test (MIC); type: cell-based
[7] = test system: Streptococcus faecalis D 3; experiment: in vitro antibacterial test (MIC); type: cell-based; conditions: Enterococcus faecalis, D3
[8] = test system: Pseudomonas aeruginosa ATCC 12055; experiment: in vitro antibacterial test (MIC); type: cell-based; conditions: ATCC12055
Proteus rettgeri 856 = experiment: in vitro antibacterial test (MIC); type: cell-based; conditions: Providencia rettgeri
[9] = test system: Neisseria meningitidis 1316; experiment: in vitro antibacterial test (MIC); type: cell-based
[10] = test system: Streptococcus pyogenes Aronson; experiment: in vitro antibacterial test (MIC); type: cell-based
[11] = test system: Escherichia coli 205 R+TEM; experiment: in vitro antibacterial test (MIC); type: cell-based
Proteus morganii 1518 = experiment: in vitro antibacterial test (MIC); type: cell-based; conditions: Morganella morganii
[12] = test system: Haemophilus influenzae NCTC 4560; experiment: in vitro antibacterial test (MIC); type: cell-based; conditions: NCTC4560
[13] = test system: Staphylococcus aureus 2999i+p+; experiment: in vitro antibacterial test (MIC); type: cell-based
Escherichia coli 205 = experiment: in vitro antibacterial test (MIC); type: cell-based
[14] = test system: Streptococcus pneumoniae III/84; experiment: in vitro antibacterial test (MIC); type: cell-based
[15] = test system: Staphylococcus aureus 10 B; experiment: in vitro antibacterial test (MIC); type: cell-based
[16] = test system: Klebsiella pneumoniae 327; experiment: in vitro antibacterial test (MIC); type: cell-based
Escherichia coli UB 1005 = experiment: in vitro antibacterial test (MIC); type: cell-based; conditions: UB1005; Escherichia coli UB 1005, in vitro
Text: as §1, with “mg/kg. Beispielsweise weisen Natrium-(5R,6S)-2-[3-(2-methyl-tetrazol-5-yl)-propyl]-6-hydroxymethyl-2-penem 3-carboxylat (Verbindung A) und (5R,65)-2-[3-(2-Methyl-1,3,4-oxadiazo1-5-yl)-propyl]-6-hydroxymethyl-2-penem-3-carbonsäure (Verbindung B) in dem genannten in-vitro-Test die folgenden Werte auf:” for “mg/kg.”

Escherichia coli DC 2 = experiment: in vitro antibacterial test (MIC); type: cell-based; conditions: DC2; Escherichia coli DC 2, in vitro
Text: as §1, with “mg/kg. Beispielsweise weisen Natrium-(5R,6S)-2-[3-(2-methyl-tetrazol-5-yl)-propyl]-6-hydroxymethyl-2-penem 3-carboxylat (Verbindung A) und (5R,65)-2-[3-(2-Methyl-1,3,4-oxadiazo1-5-yl)-propyl]-6-hydroxymethyl-2-penem-3-carbonsäure (Verbindung B) in dem genannten in-vitro-Test die folgenden Werte auf:” for “mg/kg.”

Molecule `Cc1nnc(CCCC2=C(C(=O)O)N3C(=O)[C@H](CO)[C@H]3S2)o1` [Verbindung B, (5R,65)-2-[3-(2-Methyl-1,3,4-oxadiazo1-5-yl)-propyl]-6-hydroxymethyl-2-penem-3-carbonsäure] has an MIC [1] of 0.1 µg/mL (≈ 0.307 µM), an MIC [2] of 16 µg/mL (≈ 49.2 µM) and an MIC [3] of 2 µg/mL (≈ 6.15 µM). For the same molecule, the MIC ([4]; Neisseria gonorrhoeae 1317-4, in vitro, read-out: MIC) was 0.01 µg/mL (≈ 0.0307 µM), the MIC (Proteus mirabilis 774; Proteus mirabilis 774, in vitro, read-out: MIC) was 2 µg/mL (≈ 6.15 µM) and the ED50 ([5]; mouse, systemic infection by Staphylococcus aureus lOB, subcutaneous application, read-out: ED50) was 0.3 to 30 mg/kg. It also gave an MIC (Escherichia coli 16; Escherichia coli 16, in vitro, read-out: MIC) of 16 µg/mL (≈ 49.2 µM), an MIC (Proteus mirabilis 1219; Proteus mirabilis 1219, in vitro, read-out: MIC) of 4 µg/mL (≈ 12.3 µM) and an MIC ([6]; Bacteroides fragilis L 01, in vitro, read-out: MIC) of 0.5 µg/mL (≈ 1.54 µM). It also gave an MIC (Proteus morganii 2359; Proteus morganii 2359, in vitro, read-out: MIC) of 2 µg/mL (≈ 6.15 µM), an MIC (Serratia marcescens 344; Serratia marcescens 344, in vitro, read-out: MIC) of 16 µg/mL (≈ 49.2 µM) and an MIC ([7]; Streptococcus faecalis D 3, in vitro, read-out: MIC) of 32 µg/mL (≈ 98.4 µM). The MIC ([8]; Pseudomonas aeruginosa ATCC 12055, in vitro, read-out: MIC) was greater than 32 µg/mL, the MIC (Proteus rettgeri 856; Proteus rettgeri 856, in vitro, read-out: MIC) was 4 µg/mL (≈ 12.3 µM) and the MIC ([9]; Neisseria meningitidis 1316, in vitro, read-out: MIC) was 0.05 µg/mL (≈ 0.154 µM). The MIC ([10]; Streptococcus pyogenes Aronson, in vitro, read-out: MIC) was 0.1 µg/mL (≈ 0.307 µM), the MIC [11] was 4 µg/mL (≈ 12.3 µM) and the MIC (Proteus morganii 1518; Proteus morganii 1518, in vitro, read-out: MIC) was 8 µg/mL (≈ 24.6 µM). The MIC ([12]; Haemophilus influenzae NCTC 4560, in vitro, read-out: MIC) was 2 µg/mL (≈ 6.15 µM), the MIC ([13]; Staphylococcus aureus 2999i+p+, in vitro, read-out: MIC) was 0.2 µg/mL (≈ 0.615 µM) and the MIC (Escherichia coli 205; Escherichia coli 205, in vitro, read-out: MIC) was 1 µg/mL (≈ 3.07 µM). It also gave an MIC ([14]; Streptococcus pneumoniae III/84, in vitro, read-out: MIC) of 0.05 µg/mL (≈ 0.154 µM), an MIC ([15]; Staphylococcus aureus 10 B, in vitro, read-out: MIC) of 0.2 µg/mL (≈ 0.615 µM) and an MIC ([16]; Klebsiella pneumoniae 327, in vitro, read-out: MIC) of 2 µg/mL (≈ 6.15 µM). It also gave an MIC (Escherichia coli UB 1005) of 2 µg/mL (≈ 6.15 µM) and an MIC (Escherichia coli DC 2) of 1 µg/mL (≈ 3.07 µM).
In the case of `Cn1nnc(CCCC2=C(C(=O)[O-])N3C(=O)[C@H](CO)[C@H]3S2)n1.[Na+]` [Verbindung A, Natrium-(5R,6S)-2-[3-(2-methyl-tetrazol-5-yl)-propyl]-6-hydroxymethyl-2-penem 3-carboxylat], the MIC [1] is reported as 0.2 µg/mL, the MIC [2] is reported as 32 µg/mL and the MIC [3] is reported as 2 µg/mL. For the same molecule, the MIC ([4]; Neisseria gonorrhoeae) was 0.01 µg/mL, the MIC (Proteus mirabilis 774; Proteus mirabilis, 774) was 4 µg/mL and the ED50 ([5]; Staphylococcus aureus) was 3 to 10 mg/kg. The MIC (Escherichia coli 16; Escherichia coli, 16) was 32 µg/mL, the MIC (Proteus mirabilis 1219; Proteus mirabilis, 1219) was 8 µg/mL and the MIC ([6]; Bacteroides fragilis) was 0.5 µg/mL. It also gave an MIC (Proteus morganii 2359; 2359) of 2 µg/mL, an MIC (Serratia marcescens 344; Serratia marcescens, 344) of 64 µg/mL and an MIC [7] of 32 µg/mL. The MIC ([8]; Pseudomonas aeruginosa) was greater than 128 µg/mL, the MIC (Proteus rettgeri 856; 856) was 16 µg/mL and the MIC ([9]; Neisseria meningitidis, 1316) was 0.01 µg/mL. For the same molecule, the MIC ([10]; Streptococcus pyogenes) was 0.2 µg/mL, the MIC [11] was 8 µg/mL and the MIC (Proteus morganii 1518; 1518) was 16 µg/mL. It also gave an MIC ([12]; Haemophilus influenzae) of 2 µg/mL, an MIC ([13]; Staphylococcus aureus) of 0.2 µg/mL and an MIC (Escherichia coli 205; Escherichia coli, 205) of 4 µg/mL. The MIC ([14]; Streptococcus pneumoniae) was 0.05 µg/mL, the MIC ([15]; Staphylococcus aureus, 10B) was 0.2 µg/mL and the MIC ([16]; Klebsiella pneumoniae, 327) was 4 µg/mL. For the same molecule, the MIC (Escherichia coli UB 1005) was 8 µg/mL and the MIC (Escherichia coli DC 2) was 2 µg/mL.
